From patent publication US9242987B2, “Heterocyclyl pyrazolopyrimidine analogues as JAK inhibitors” (Cellzome Limited, priority 2009, dated 2016)

Legend:
JAK3 = target: T1, JAK3 (Homo sapiens, UniProt P52333); experiment: Kinobeads assay, JAK3; type: binding; details: mixed Molt4/Ramos cell lysate, dot blot detection
T1 construct: endogenous in cells; host or cells: Mixed Molt4/Ramos lysate (1:2)
T1 sequence (P52333 1-1124): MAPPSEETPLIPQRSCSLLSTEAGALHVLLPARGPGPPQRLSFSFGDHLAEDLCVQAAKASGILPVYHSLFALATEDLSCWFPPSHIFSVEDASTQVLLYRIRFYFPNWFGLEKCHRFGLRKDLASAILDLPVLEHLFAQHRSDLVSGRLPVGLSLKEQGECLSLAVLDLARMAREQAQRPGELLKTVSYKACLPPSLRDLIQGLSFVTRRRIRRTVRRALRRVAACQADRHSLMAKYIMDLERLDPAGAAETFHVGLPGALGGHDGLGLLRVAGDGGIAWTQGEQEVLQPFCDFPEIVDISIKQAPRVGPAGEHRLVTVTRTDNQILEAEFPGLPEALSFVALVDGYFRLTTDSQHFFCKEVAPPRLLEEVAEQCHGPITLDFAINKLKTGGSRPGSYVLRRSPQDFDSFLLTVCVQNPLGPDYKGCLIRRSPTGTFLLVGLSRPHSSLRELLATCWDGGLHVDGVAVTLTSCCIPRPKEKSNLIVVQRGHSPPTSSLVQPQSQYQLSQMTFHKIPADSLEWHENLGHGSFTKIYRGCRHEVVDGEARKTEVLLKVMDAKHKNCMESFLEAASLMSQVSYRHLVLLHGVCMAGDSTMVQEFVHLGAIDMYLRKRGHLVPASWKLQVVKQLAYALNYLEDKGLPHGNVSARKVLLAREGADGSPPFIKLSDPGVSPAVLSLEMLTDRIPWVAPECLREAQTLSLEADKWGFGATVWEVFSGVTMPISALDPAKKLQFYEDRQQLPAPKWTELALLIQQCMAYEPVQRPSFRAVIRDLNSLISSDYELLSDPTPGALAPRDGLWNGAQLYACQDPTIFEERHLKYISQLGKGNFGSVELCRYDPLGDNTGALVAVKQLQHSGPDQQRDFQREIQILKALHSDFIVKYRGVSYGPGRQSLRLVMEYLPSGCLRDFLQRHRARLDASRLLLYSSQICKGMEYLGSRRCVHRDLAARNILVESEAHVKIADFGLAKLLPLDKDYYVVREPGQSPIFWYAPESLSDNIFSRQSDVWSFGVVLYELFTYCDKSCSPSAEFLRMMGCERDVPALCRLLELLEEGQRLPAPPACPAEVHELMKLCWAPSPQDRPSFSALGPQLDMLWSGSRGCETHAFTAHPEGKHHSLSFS
Description: (§1) The compounds of the present invention as described in the previous examples were tested in a Kinobeads™ assay as described for ZAP-70 (WO-A 2007/137867). Briefly, test compounds (at various concentrations) and the affinity matrix with the immobilized aminopyrido-pyrimidine ligand 24 were added to cell lysate aliquots and allowed to bind to the proteins in the lysate sample. After the incubation time the beads with captured proteins were separated from the lysate. Bound proteins were then eluted and the presence of JAK2 and JAK3 was detected and quantified using specific antibodies in a dot blot procedure and the Odyssey infrared detection system. Dose response curves for individual kinases were generated and IC50 values calculated. Kinobeads™ assays for ZAP-70 (WO-A 2007/137867) and for kinase selectivity profiling (WO-A 2006/134056) have been previously described.
(§2) The affinity matrix was washed two times with 15 mL of 1×DP buffer containing 0.2% NP40 (IGEPAL® CA-630, Sigma, #13021) and then resuspended in 1×DP buffer containing 0.2% NP40 (3% beads slurry).
(§3) 5×DP buffer: 250 mM Tris-HCl pH 7.4, 25% Glycerol, 7.5 mM MgCl2, 750 mM NaCl, 5 mM Na3VO4; filter the 5×DP buffer through a 0.22 μm filter and store in aliquots at −80° C. The 5×DP buffer is diluted with H2O to 1×DP buffer containing 1 mM DTT and 25 mM NaF.
(§4) Stock solutions of test compounds were prepared in DMSO. In a 96 well plate 30 μL solution of diluted test compounds at 5 mM in DMSO were prepared. Starting with this solution a 1:3 dilution series (9 steps) was prepared. For control experiments (no test compound) a buffer containing 2% DMSO was used.
(§5) Molt4 cells (ATCC catalogue number CRL-1582) and Ramos cells (ATCC catalogue number CRL-1596) were grown in 1 L Spinner flasks (Integra Biosciences, #182101) in suspension in RPMI 1640 medium (Invitrogen, #21875-034) supplemented with 10% Fetal Bovine Serum (Invitrogen) at a density between 0.15×10^6 and 1.2×10^6 cells/mL. Cells were harvested by centrifugation, washed once with 1×PBS buffer (Invitrogen, #14190-094) and cell pellets were frozen in liquid nitrogen and subsequently stored at −80° C. Cells were homogenized in a Potter S homogenizer in lysis buffer: 50 mM Tris-HCl, 0.8% NP40, 5% glycerol, 150 mM NaCl, 1.5 mM MgCl2, 25 mM NaF, 1 mM sodium vanadate, 1 mM DTT, pH 7.5. One complete EDTA-free tablet (protease inhibitor cocktail, Roche Diagnostics, 1873580) per 25 mL buffer was added. The material was dounced 10 times using a mechanized POTTER S, transferred to 50 mL falcon tubes, incubated for 30 minutes on ice and spun down for 10 minutes at 20,000 g at 4° C. (10,000 rpm in Sorvall SLA600, precooled). The supernatant was transferred to an ultracentrifuge (UZ)-polycarbonate tube (Beckmann, 355654) and spun for 1 hour at 100.000 g at 4° C. (33.500 rpm in Ti50.2, precooled). The supernatant was transferred again to a fresh 50 mL falcon tube, the protein concentration was determined by a Bradford assay (BioRad) and samples containing 50 mg of protein per aliquot were prepared. The samples were immediately used for experiments or frozen in liquid nitrogen and stored frozen at −80° C.
(§6) Cell lysate (approximately 50 mg protein per plate) was thawed in a water bath at room temperature and then stored on ice. To the thawed cell lysate 1×DP 0.8% NP40 buffer containing protease inhibitors (1 tablet for 25 mL buffer; EDTA-free protease inhibitor cocktail; Roche Diagnostics 1873580) was added in order to reach a final protein concentration of 10 mg/mL total protein. The diluted cell lysate was stored on ice. Mixed Molt4/Ramos lysate was prepared by combining one volume of Molt4 lysate and two volumes of Ramos lysate (ratio 1:2).
(§7) To a 96 well filter plate (Multiscreen HTS, BV Filter Plates, Millipore #MSBVN1250) were added per well: 100 μL affinity matrix (3% beads slurry), […], of compound solution, and 50 μL of diluted lysate. […]

JAK2 = target: T2, JAK2 (Homo sapiens, UniProt O60674); experiment: Kinobeads assay, JAK2; type: binding; details: mixed Molt4/Ramos cell lysate, dot blot detection
T2 construct: endogenous in cells; host or cells: Mixed Molt4/Ramos lysate (1:2)
Description: as §1, §2, §3, §4, §5, §6, §7

T2 sequence (O60674 whole entry): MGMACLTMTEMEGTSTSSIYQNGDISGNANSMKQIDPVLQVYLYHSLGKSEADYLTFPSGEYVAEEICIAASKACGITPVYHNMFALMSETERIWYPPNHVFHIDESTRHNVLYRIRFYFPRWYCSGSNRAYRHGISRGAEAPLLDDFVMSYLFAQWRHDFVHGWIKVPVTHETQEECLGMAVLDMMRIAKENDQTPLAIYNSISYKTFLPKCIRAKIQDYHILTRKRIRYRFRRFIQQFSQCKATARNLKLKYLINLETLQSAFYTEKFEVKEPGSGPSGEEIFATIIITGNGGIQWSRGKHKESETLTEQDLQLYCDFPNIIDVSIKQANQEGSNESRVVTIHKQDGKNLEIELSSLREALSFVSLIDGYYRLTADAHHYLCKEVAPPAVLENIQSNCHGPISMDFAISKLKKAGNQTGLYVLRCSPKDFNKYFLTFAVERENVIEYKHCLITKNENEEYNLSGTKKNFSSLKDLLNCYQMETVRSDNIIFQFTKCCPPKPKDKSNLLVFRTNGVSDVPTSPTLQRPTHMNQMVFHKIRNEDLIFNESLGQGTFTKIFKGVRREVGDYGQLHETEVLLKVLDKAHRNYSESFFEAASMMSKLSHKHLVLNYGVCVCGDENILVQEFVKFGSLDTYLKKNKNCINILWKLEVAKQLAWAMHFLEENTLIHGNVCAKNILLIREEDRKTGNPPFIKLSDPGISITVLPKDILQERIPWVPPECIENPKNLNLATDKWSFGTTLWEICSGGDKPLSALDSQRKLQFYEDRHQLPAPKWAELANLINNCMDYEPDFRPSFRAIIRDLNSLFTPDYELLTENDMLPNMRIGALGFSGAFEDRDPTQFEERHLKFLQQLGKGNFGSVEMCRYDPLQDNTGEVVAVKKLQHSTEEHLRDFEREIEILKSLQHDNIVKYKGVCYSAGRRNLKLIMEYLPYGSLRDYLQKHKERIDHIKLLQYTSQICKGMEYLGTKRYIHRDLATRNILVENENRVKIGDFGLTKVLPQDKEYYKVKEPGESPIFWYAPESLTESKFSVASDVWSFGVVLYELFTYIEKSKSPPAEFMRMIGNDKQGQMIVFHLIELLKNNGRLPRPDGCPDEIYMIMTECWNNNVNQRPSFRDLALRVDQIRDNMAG

Compound	IC50 (JAK3) [µM]	IC50 (JAK2) [µM]
CNC(=O)Cn1cc(Nc2ncc3cnn(Cc4ccccc4)c3n2)cn1 [Example 133, 2-(4-((1-Benzyl-1H-pyrazolo[3,4-d]pyrimidin-6-yl)amino)-1H-pyrazol-1-yl)-N-methylacetamide]	< 0.1	1 to 10
Fc1ccccc1Cn1ncc2cnc(Nc3c[nH]nc3Cl)nc21 [Example 97, N-(3-Chloro-1H-pyrazol-4-yl)-1-(2-fluorobenzyl)-1H-pyrazolo[3,4-d]pyrimidin-6-amine]	0.1 to 1	≥ 10
Cn1cc(Nc2ncc3cnn(-c4ccc(C(=O)N5CCOCC5)cc4)c3n2)cn1 [Example 137, (4-(6-((1-Methyl-1H-pyrazol-4-yl)amino)-1H-pyrazolo[3,4-d]pyrimidin-1-yl)phenyl)(morpholino)methanone]	< 0.1	0.1 to 1
Cn1cc(Nc2ncc3cnn(Cc4cccc(N5CCOCC5)c4)c3n2)cc1C(=O)N1CCOCC1 [Example 248]	< 0.1	1 to 10
Cc1nn(CC(F)F)cc1Nc1ncc2cnn(Cc3cc(F)ccc3F)c2n1 [Example 150, 1-(2,5-Difluorobenzyl)-N-(1-(2,2-difluoroethyl)-3-methyl-1H-pyrazol-4-yl)-1H-pyrazolo[3,4-d]pyrimidin-6-amine]	< 0.1	1 to 10
COc1nn(CC(F)F)cc1Nc1ncc2cnn(Cc3ccccc3)c2n1 [Example 119, 1-Benzyl-N-(1-(2,2-difluoroethyl)-3-methoxy-1H-pyrazol-4-yl)-1H-pyrazolo[3,4-d]pyrimidin-6-amine]	0.1 to 1	≥ 10
COc1nn(CCO)cc1Nc1ncc2cnn(Cc3ccccc3)c2n1 [Example 106, 2-(4-((1-Benzyl-1H-pyrazolo[3,4-d]pyrimidin-6-yl)amino)-3-methoxy-1H-pyrazol-1-yl)ethanol]	< 0.1	1 to 10
O=C(c1cccc(Cn2ncc3cnc(Nc4cnn(CCO)c4)nc32)c1F)N1CCOCC1 [Example 313, (2-Fluoro-3-((6-((1-(2-hydroxyethyl)-1H-pyrazol-4-yl)amino)-1H-pyrazolo[3,4-d]pyrimidin-1-yl)methyl)phenyl)(morpholino)methanone]	–	≥ 10

Next, values leading:

IC50 (JAK3) [µM]	IC50 (JAK2) [µM]	Compound
0.1 to 1	≥ 10	CC(C)S(=O)(=O)Nc1cccc(Cn2ncc3cnc(Nc4cnn(C)c4)nc32)c1 [Example 141, N-(3-((6-((1-Methyl-1H-pyrazol-4-yl)amino)-1H-pyrazolo[3,4-d]pyrimidin-1-yl)methyl)phenyl)propane-2-sulfonamide]
< 0.1	0.1 to 1	Fc1ccccc1Cn1ncc2cnc(Nc3cnn(CCN4CCNCC4)c3)nc21 [Example 182, 1-(2-Fluorobenzyl)-N-(1-(2-(piperazin-1-yl)ethyl)-1H-pyrazol-4-yl)-1H-pyrazolo[3,4-d]pyrimidin-6-amine]
< 0.1	1 to 10	Cn1cc(Nc2ncc3cnn(Cc4ccccc4C4CC4)c3n2)cn1 [Example 111, 1-(2-Cyclopropylbenzyl)-N-(1-methyl-1H-pyrazol-4-yl)-1H-pyrazolo[3,4-d]pyrimidin-6-amine]
< 0.1	0.1 to 1	COc1cc(F)cc(Cn2ncc3cnc(Nc4cnn(C)c4)nc32)c1 [Example 104, 1-(3-Fluoro-5-methoxybenzyl)-N-(1-methyl-1H-pyrazol-4-yl)-1H-pyrazolo[3,4-d]pyrimidin-6-amine]
< 0.1	0.1 to 1	CC(O)Cn1cc(Nc2ncc3cnn(Cc4ccccc4F)c3n2)cn1 (centres unmarked) [Example 89, 1-(4-((1-(2-Fluorobenzyl)-1H-pyrazolo[3,4-d]pyrimidin-6-yl)amino)-1H-pyrazol-1-yl)propan-2-ol]
0.1 to 1	≥ 10	CC(C)c1cccc(Cn2ncc3cnc(Nc4cnn(C)c4)nc32)c1 [Example 100, 1-(3-Isopropylbenzyl)-N-(1-methyl-1H-pyrazol-4-yl)-1H-pyrazolo[3,4-d]pyrimidin-6-amine]
< 0.1	1 to 10	COc1cccc(Cn2ncc3cnc(Nc4cnn(C)c4)nc32)c1 [Example 69, 1-(3-Methoxybenzyl)-N-(1-methyl-1H-pyrazol-4-yl)-1H-pyrazolo[3,4-d]pyrimidin-6-amine]
< 0.1	1 to 10	OCCn1cnc(Nc2ncc3cnn(Cc4ccccc4F)c3n2)c1 [Example 240, 2-(4-((1-(2-Fluorobenzyl)-1H-pyrazolo[3,4-d]pyrimidin-6-yl)amino)-1H-imidazol-1-yl)ethanol]
< 0.1	1 to 10	Cn1cc(Nc2ncc3cnn(Cc4cccc(F)c4F)c3n2)cn1 [Example 31, 1-(2,3-Difluorobenzyl)-N-(1-methyl-1H-pyrazol-4-yl)-1H-pyrazolo[3,4-d]pyrimidin-6-amine]
< 0.1	≥ 10	Cn1cc(Nc2ncc3cnn(Cc4cccc(OC5CCOC5)c4)c3n2)cn1 (centres unmarked) [Example 181, N-(1-Methyl-1H-pyrazol-4-yl)-1-(3-((tetrahydrofuran-3-yl)oxy)benzyl)-1H-pyrazolo[3,4-d]pyrimidin-6-amine]
< 0.1	0.1 to 1	Cn1cc(Nc2ncc3cnn(Cc4cc(F)cc(F)c4)c3n2)cn1 [Example 79, 1-(3,5-Difluorobenzyl)-N-(1-methyl-1H-pyrazol-4-yl)-1H-pyrazolo[3,4-d]pyrimidin-6-amine]
–	≥ 10	Cn1cc(Nc2ncc3cnn(Cc4cccc(N5CCOCC5)c4)c3n2)cn1 [Example 162, N-(1-Methyl-1H-pyrazol-4-yl)-1-(3-morpholinobenzyl)-1H-pyrazolo[3,4-d]pyrimidin-6-amine]
